Laboratory results taken from US20130045952A1, “ABA Receptor Agonists for Increased Plant Stress Resistance” (Van Andel Research Institute, priority 2011, published 2013).
pEC50: −log10 of the molar value.

Columns and labels:
Format in all cases: biochemical
His6-PYL1 / biotin-PP2C = molecular target: T1, His6-PYL1 / biotin-PP2C (Arabidopsis thaliana, UniProt Q8VZS8); assay: AlphaScreen luminescence proximity assay, PYL1-PP2C interaction; settings: for Stimulation of the interaction between PYL1 and PP2C (binding signal): 100 nM His6-PYL1, 100 nM biotin-PP2C, 100 μM agonist, normalized against a pyrabactin control
T1 construct: PYL1 (residues 36-211), PYL2 (residues 14-188), and HAB1 (residues 172-511) were prepared as recombinant proteins in E. coli; made in house; host or cells: E. coli
T1 sequence (Q8VZS8 36-211): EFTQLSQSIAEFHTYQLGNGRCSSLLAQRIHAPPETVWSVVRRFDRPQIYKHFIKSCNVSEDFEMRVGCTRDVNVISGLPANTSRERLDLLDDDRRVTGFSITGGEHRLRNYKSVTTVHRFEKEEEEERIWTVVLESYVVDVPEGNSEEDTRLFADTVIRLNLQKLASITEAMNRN
Protocol: (§1) Mutant proteins were expressed as H6GST-fusion proteins and purified by glutathione sepharose chromatography. Protein-protein interactions were determined by luminescence proximity AlphaScreen assay. Biotinylated PP2C proteins for the luminescence proximity assay were generated by in vivo biotinylation of avitag-PP2C fusion proteins. PP2C phosphatase activity was measured by phosphate release from a SnRK2.6 phosphoprotein.
(§2) Interactions between PYR/PYL and PP2Cs were assessed by luminescence-proximity AlphaScreen technology (Perkin Elmer). Briefly, biotinylated PP2Cs were attached to streptavidin-coated donor beads, and H6-tagged PYR/PYL receptors were attached to nickel-chelated acceptor beads. The donor and acceptor beads were brought into proximity by the interactions between PYR/PYLs and PP2Cs, which were measured with and without ligands. When excited by a laser beam of 680 nm, the donor beam emits singlet oxygen that activates thioxene derivatives in the acceptor beads, which releases photons of 520-620 nm as the binding signal. The experiments were conducted with 100 nM of PP2Cs and PYR/PYL proteins in the presence of 5 ug/ml donor and acceptor beads in a buffer of 50 mM MOPS, pH7.4, 50 mM NaF, […], and 0.1 mg/ml bovine serum albumin. The results were based on an average of three experiments with standard errors typically less than 10% of the measurements.
(§3) Values were determined in different experiments and normalized against a pyrabactin control. Blank spaces mean no experimental data is available. Key (photon counts (binding signal units) in Alphascreen luminescence proximity assay): “+++ is >75,000; ++ is 25,000−75,000; + is <25,000.

His6-PYL3 / biotin-PP2C = molecular target: T2, His6-PYL3 / biotin-PP2C (Arabidopsis thaliana, UniProt Q9SSM7); assay: AlphaScreen luminescence proximity assay, PYL3-PP2C interaction; settings: for Stimulation of the interaction between PYL3 and PP2C (binding signal): 100 nM His6-PYL3, 100 nM biotin-PP2C, 100 μM agonist, normalized against a pyrabactin control
T2 construct: made in house; host or cells: not expressly stated for PYL3
T2 sequence (Q9SSM7 1-209): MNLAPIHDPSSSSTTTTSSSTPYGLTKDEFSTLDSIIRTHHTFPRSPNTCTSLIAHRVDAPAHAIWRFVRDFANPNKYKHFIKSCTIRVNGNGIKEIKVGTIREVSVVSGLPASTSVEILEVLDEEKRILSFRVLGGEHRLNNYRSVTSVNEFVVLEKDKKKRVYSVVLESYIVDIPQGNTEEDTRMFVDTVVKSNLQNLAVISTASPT
Protocol: as §1, §2, §3

His6-PYR1 / biotin-ABI1 = molecular target: T3, His6-PYR1 / biotin-ABI1 (Arabidopsis thaliana, UniProt O49686); assay: AlphaScreen dose response, PYR1-ABI1 interaction; settings: 100 nM His6-PYR1, 100 nM biotin-PP2C, 0-100 μM agonist; from dose response curves
T3 construct: made in house; host or cells: E. coli (stated for the PP2Cs; not expressly for PYR1)
T3 sequence (O49686 1-191): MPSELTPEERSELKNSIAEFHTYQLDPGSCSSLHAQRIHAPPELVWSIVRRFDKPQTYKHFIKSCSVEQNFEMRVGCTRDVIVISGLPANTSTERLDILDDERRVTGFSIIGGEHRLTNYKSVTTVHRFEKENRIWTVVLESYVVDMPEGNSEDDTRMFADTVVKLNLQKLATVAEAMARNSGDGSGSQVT
T3 sequence (P49597 117-434 partner limits assumed): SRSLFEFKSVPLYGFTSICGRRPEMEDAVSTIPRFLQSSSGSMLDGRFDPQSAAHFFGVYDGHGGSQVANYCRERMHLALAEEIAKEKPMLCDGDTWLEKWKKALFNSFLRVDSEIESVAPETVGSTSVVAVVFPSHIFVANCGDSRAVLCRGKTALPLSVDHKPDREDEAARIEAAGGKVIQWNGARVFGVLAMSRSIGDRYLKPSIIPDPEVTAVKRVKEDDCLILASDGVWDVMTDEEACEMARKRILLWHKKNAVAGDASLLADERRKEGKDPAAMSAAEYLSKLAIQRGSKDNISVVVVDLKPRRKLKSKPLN
Protocol: as §2
(§4) The results shown in Table 5b were calculated from the dose response curves of the dependence of the interaction between 100 nM His6-PYR1 and 100 nM biotin-PP2C on the presence of 0-100 μM agonists determined by AlphaScreen luminescence proximity assay. Key (EC50 in μM): ++++=<5.0 μM; +++=5-10 μM; ++=10-20 μM; and +=>20-60 μM.

His6-PYR1 / biotin-HAB1 = molecular target: T4, His6-PYR1 / biotin-HAB1 (Arabidopsis thaliana, UniProt O49686); assay: AlphaScreen dose response, PYR1-HAB1 interaction; settings: 100 nM His6-PYR1, 100 nM biotin-PP2C, 0-100 μM agonist; from dose response curves
T4 construct: made in house; host or cells: E. coli (stated for the PP2Cs; not expressly for PYR1)
T4 sequence (O49686 1-191): T3 sequence (O49686 1-191)
T4 sequence (Q9CAJ0 172-511 partner limits assumed): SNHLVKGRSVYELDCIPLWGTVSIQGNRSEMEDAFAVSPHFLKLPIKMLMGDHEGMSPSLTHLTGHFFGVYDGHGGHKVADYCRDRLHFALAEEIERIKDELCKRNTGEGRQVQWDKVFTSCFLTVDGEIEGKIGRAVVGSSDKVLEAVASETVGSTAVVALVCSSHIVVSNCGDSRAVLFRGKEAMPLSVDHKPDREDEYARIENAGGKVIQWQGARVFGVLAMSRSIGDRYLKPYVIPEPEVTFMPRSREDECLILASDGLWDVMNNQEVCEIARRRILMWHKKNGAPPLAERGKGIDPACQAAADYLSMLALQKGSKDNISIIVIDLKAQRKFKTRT
Protocol: as §2, §4

ABI1 = molecular target: T5, ABI1 (Arabidopsis thaliana, UniProt O49686+P49597); assay: PP2C phosphatase activity assay, ABI1; settings: 200 nM PP2C; SnRK2.6 phosphopeptide substrate; None = 100
T5 construct: ABI1 (residues 117-434) and ABI2 (residues 101-423) were expressed as H6Sumo fusion proteins; H6Sumo (N); made in house; host or cells: E. coli BL21
T5 sequence (P49597 117-434 limits assumed): T3 sequence (P49597 117-434 partner limits assumed)
T5 sequence (O49686 1-191): T3 sequence (O49686 1-191)
Protocol: as §1
PP2Cs and PYR/PYL proteins were pre-incubated at the indicated concentrations in 50 mM imidazole, pH 7.2, 5 mM MgCl2, 0.1% β-mercaptoethanol and 0.5 mg/ml BSA for 30 min at room temperature. Reactions were started by addition of 100 μM of a phosphopeptide corresponding to amino acids 170-180 of SnRK2.6 (HSQPK^pSTVGTP). This peptide is phosphorylated at a single residue corresponding to Ser175 in SnRK2.6, whose phosphorylation is required for SnRK2.6 kinase activity^32. Phosphate release from ^pS175 from the phosphopeptide was determined by colorimetric assay (BioVision).

[1] = purified proteins in vitro, HAB1, ABI1, ABI2

Stimulation of the interaction between PYL1 and PP2C (binding signal) (His6-PYL1 / biotin-PP2C) | Stimulation of the interaction between PYL3 and PP2C (binding signal) (His6-PYL3 / biotin-PP2C) | pEC50 (His6-PYR1 / biotin-ABI1) | pEC50 (His6-PYR1 / biotin-HAB1) | % Phosphatase Activity ABI1 (ABI1) [%] | Compound | Promotion of PYL1 interaction with the three PP2Cs (His6-PYL1 / biotin-PP2C; [1]) | Agonist activity in wildtype PYL1 (His6-PYL1 / biotin-PP2C; wildtype PYL1) | Promotion of PYL3 interaction with the three PP2Cs (His6-PYL3 / biotin-PP2C; [1])
+ (+ is <25,000) | ++ (++ is 25,000−75,000) | 4.70 to 5.00 | 5.00 to 5.30 | 4.7 ± 1.0 | CCN1C(=O)c2cccc3c(S(=O)(=O)NC[C@@H]4CCCO4)ccc1c23 [Compound 11] | – | – | –
+ (+ is <25,000) | + (+ is <25,000) | 4.70 to 5.00 | 5.00 to 5.30 | 4.3 ± 0.8 | CCOC(=O)CNS(=O)(=O)c1ccc2c3c(cccc13)C(=O)N2CC [Compound 2] | – | – | –
+ (+ is <25,000) | + (+ is <25,000) | 4.70 to 5.00 | 4.22 to 4.70 | 3.3 ± 1.0 | O=C1Nc2ccc(S(=O)(=O)NCc3ccccn3)c3cccc1c23 [Compound 1] | – | – | –

Compound | Stimulation of the interaction between PYL1 and PP2C (binding signal) (His6-PYL1 / biotin-PP2C) | Stimulation of the interaction between PYL3 and PP2C (binding signal) (His6-PYL3 / biotin-PP2C) | pEC50 (His6-PYR1 / biotin-ABI1) | pEC50 (His6-PYR1 / biotin-HAB1) | % Phosphatase Activity ABI1 (ABI1) [%] | Promotion of PYL1 interaction with the three PP2Cs (His6-PYL1 / biotin-PP2C; [1]) | Agonist activity in wildtype PYL1 (His6-PYL1 / biotin-PP2C; wildtype PYL1) | Promotion of PYL3 interaction with the three PP2Cs (His6-PYL3 / biotin-PP2C; [1])
O=S(=O)(NCc1ccccn1)c1ccc(Br)c2ccccc12 [Pyrabactin, pyrabactin] | – | – | 5.00 to 5.30 | > 5.30 | 2.8 ± 0.2 | promoted interaction | very weak | promoted interaction
